According to patent publication US20170313974A1, “Modulation of Tissue Fatty Acid Composition of a Host by Human Gut Bacteria” (University College Cork, National University of Ireland, priority 2007, published 2017):

Tests used:
Assay type in all cases: in vivo
splenocytes = assay: Cytokine production by stimulated splenocytes of fed SCID mice with colitis; conditions: compared to control
Method: (§1) Materials and Methods Severe Combined Immuno Deficient (SCID) mice were used in this study, which had been induced with colitis through adoptive transfer of splenic CD4^+ CD45RB^high T cells from BALB/c mice. […] Ten weeks after colitis induction, cytokine production by splenocytes was measured in vitro by ELISA, myeloperoxidase (MPO) activity was determined in colonic homogenates and fatty acid composition in liver, adipose tissue, cecum and colon was determined by gas liquid chromatography (GLC). Similar studies have also been conducted in pigs (data not shown here) and similar results obtained.
Cytokine production in response to defined stimuli, in vitro, was measured using enzyme-linked immunosorbent assay (ELISA). Splenocyte isolation was performed using an erythrocyte lysing kit (R&D Systems). The spleens of all mice were removed at the time of sacrifice, blotted on filter paper and weighed. Each spleen was immediately placed in Hanks' buffer containing 10% fetal calf serum. The spleen was teased apart and sieved through a cell strainer into a 50 ml centrifuge tube. Cells were centrifuged for 10 minutes at 200 g. The cells were resuspended in 2 ml M-lyse buffer, which lyses red blood cells, and incubated for 8 minutes at room temperature. Lysis was deactivated using wash buffer and the cell suspension was centrifuged for 10 minutes at 200 g. Cells were resuspended in DMEM (10% fetal calf serum, 1% Pen/Strep, Sigma) and diluted to 1×10^6 cells/ml for in vitro culturing. The isolated lymphocytes were cocultured with the proinflammatory bacterium Salmonella typhimurium UK1 (1×10^6 cells/ml) and with antiCD3-antiCD28 monoclonal antibodies for 48 hours at 37° C. Cell supernatants were isolated and stored at −80° C. Cytokine analysis was performed on the supernatants using a BD™ Cytometric Bead Array (CBA) Mouse Inflammation Kit (BD Biosciences, US).

BALB/c mice = assay: Tissue and faecal fatty acid composition, BALB/c LA feeding trial (8 weeks)
Method: Male BALB/c mice were purchased from Harlan Ltd. (Briester, Oxon, UK). One week after arrival, these mice were divided into two groups (n=9) for different dietary treatments. […] Group B received 1% LA in their diet. For LA treatment, a powdered diet blended with the drug was administered for 8 weeks to yield a dose of drug at approximately 90 mg/day/mouse (this is based on preliminary experiments by Bassaganya-Riera et al. (1) that established an optimal dose of fatty acids of 1 g/100 g).
After 8 weeks on experimental diets, the mice were sacrificed by cervical dislocation. Livers, hearts, colons, small intestines and cecums were removed from the carcasses, blotted dry on filter paper, weighed and frozen in liquid nitrogen. All samples were stored at −80° C. until processed.
(§2) Lipids were extracted with Chloroform:Methanol 2:1 v/v according to Folch et al. (25). Briefly, tissue or faecal samples, ˜1 g liver, 300 mg small intestine, 200 mg adipose tissue, 250 mg colon, 800 mg cecum or 100 mg feaces were homogenised in over a 25 fold excess of CHCl3:CH3OH (2:1 v/v) and washed with 0.88% KCl solution. Excess solvent was dried down under a gentle stream of N2 at 40° C. and lipids were stored at −20° C. in 1 ml chloroform. Fatty acid methyl esters (FAME) were prepared using first 10 ml 0.5N NaOH in methanol for 10 min at 90° C. followed by 10 ml 14% BF3 in methanol for 10 min at 90° C. (26). FAME was recovered with hexane. Prior to GC analysis samples were dried over 0.5 g of anhydrous sodium sulphate for an hour and stored at −20° C. FAME were separated by gas liquid chromatography (GLC Varian 3400, Varian, Walnut Creek, Calif. USA fitted with a flame ionization detector) using a Chrompack CP Sil 88 column (Chrompack, Middleton, The Netherlands, 100 m×0.25 mm i.d., 0.20 μm film thickness) and He as a carrier gas. The column oven was programmed to be held initially at 80° C. for 8 minutes then increased 8.5° C./min to a final column temperature of 200° C. The injection volume used was 0.6 μl with automatic sample injection with a splitless on SPI on-column temperature programmable injector. Data was recorded and analysed on a Minichrom PC system (VG Data System, Manchester, U.K.). Tri-heptadecanoate (Sigma) was used as an internal standard, and peaks were identified with reference to retention times of fatty acids in a standard mixture. All fatty acid results are shown as mean±SD (n=8) g/100 g FAME.

[1] = tested on: Myeloperoxidase (MPO) activity in colonic homogenates; assay: Colonic mucosal myeloperoxidase (MPO) activity in SCID mice with colitis; conditions: 10 weeks, mean ± SD, n = 8
Method: as §1
(§3) SCID mice were purchased from Harlan ltd. (Briester, Oxon, UK) at 6 weeks of age and fed a normal diet for 1 week to stabilize all metabolic conditions. Each cage contained one mouse. Mice were exposed to a 12-h light:dark cycle and maintained at a constant temperature of 25° C. One week after arrival, mice were divided into five groups for different dietary treatments (Table I).
SCID mice were induced with colitis through adoptive transfer of the CD4^+ CD45RB^high subpopulation of CD4+ T cells from normal BALB/c mice (Mackay et al. 1998). […]
Myeloperoxidase activity was measured according to the method by Krawisz et al. (24). […] The absorbance (OD) was measured spectrophotometrically at 450 nm at 1 min intervals for 15 min. […] Results are expressed as U/mg protein.

SCID mice = assay: Tissue fatty acid composition, SCID mouse colitis feeding study (10 weeks)
Method: as §1, §3
For linoleic acid and c9t11 CLA treatment, a powdered diet blended with the drug was administered for 10 weeks to yield a dose of drug at approximately 90 mg/day/mouse (this is based on preliminary experiments by Bassaganya-Riera et al. (22) that established an optimal dose of fatty acids of 1 g/100 g of diet).
After the adoptive transfer, mice were weighed three times a week and examined for clinical signs of disease associated with colitis (ie. rectal bleeding, diarrhoea and rectal prolapse). After 10 weeks on experimental diets, the mice were sacrificed by cervical dislocation. Livers, adipose tissue, spleens, colons and cecums were removed from the carcasses, blotted dry on filter paper, weighed and frozen in liquid nitrogen. All samples were stored at −80° C. until processed. The colon was divided into different sections for MPO activity and fatty acid composition.
as §2

## CCCCC/C=C\C/C=C\CCCCCCCC(=O)O [LA, linoleic acid]
splenocytes
  proinflammatory cytokines: no reduction
BALB/c mice; faeces after 8 weeks
  LA in faeces: 27.4±7.16
BALB/c mice; faeces harvested after 8 weeks
  c9, t11 CLA in faeces: 0.35±0.25 g/100 g FAME
BALB/c mice; large intestine, 8 weeks
  c9, t11 CLA in large intestine: 0.07±0.02 g/100 g FAME
BALB/c mice; liver, 8 weeks
  c9, t11 CLA in liver: 0.05±0.03 g/100 g FAME
BALB/c mice; small intestine, 8 weeks
  c9, t11 CLA in small intestine: 0.03±0.01
[1]
  MPO colon: 1.16 ± 0.23 U/mg protein
SCID mice; cecum digesta, mean ± SD, n = 8
  c9, t11 CLA in cecum digesta: 0.08 ± 0.02^ g/100 g FAME
SCID mice; faeces
  c9, t11 CLA in faeces: 0.09 g/100 g FAME
SCID mice; liver, mean ± SD, n = 8
  c9, t11 CLA in liver: 0.01 ± 0.01^2 g/100 g FAME
